The test system of test [1] is MDA-MB-231 cells. As to the kind of experiment: Cellular uptake of DOX by ImageStreamX imaging flow cytometry. Format: cell-based, human. The following applies: 5.8 μg/ml DOX. The method, then:
(§1) Imaging experiments using an imaging flow cytometer (Amnis ImageStreamX, ISX) were performed to quantitatively evaluate the cellular uptake of DOX. Cells were seeded in 6-well culture plates at a cell density of 300,000 cells per well. Twenty-four hours post-seeding, the cells were incubated for 4 h with Free DOX or AlgS-Ca^2+-DOX anionic NPs (5.8 μg/ml DOX, 5 mM Ca^2+, 0.5 μg/ml AlgS), and then medium was replaced to fresh medium for 24 h. For ISX analysis, the cells were harvested (at 4 or 24 h after DOX NP addition) by trypsinization followed by centrifugation at 300 g for 5 min. The cell pellet was resuspended in FACS buffer (PBS containing 2% FBS, v/v) and cells were analyzed using ImageStreamX Mark II (Amnis, Seattle, Wash.). Cell acquisition and analysis were performed using IDEAS Application, version 6.0.

For the next test, the system named is NAR cells. Described as above. Format: cell-based, human. The following applies: 5.8 μg/ml DOX. How it is done: as §1
Test [2] relates to MDA-MB-231 cells. As to the kind of experiment: In vivo antitumor activity in MDA-MB-231 tumor-bearing athymic nude mice. The following applies: 4 mg/kg i.v., three weekly injections. How it is done:
Female athymic nude mice (six weeks old, body weight=20-23 g) are inoculated to the right cranial trunk region with MDA-MB-231 cells/Matrigel™ 1:1 (v/v) suspension (3×10^6 cells/0.2 mL/animal). Treatment is commenced when tumor size is approximately 100-150 mm^3. Mice are treated intravenously (i.v.) with three weekly injections of 4 mg/kg ([…] 12 mg/kg) of DOX or DOX NPs in saline. NPs were prepared as described above using the following stock solutions: 2 mg/ml DOX, 1M CaCl2, 50 μg/ml AlgS. Prior to injection: DOX (0.5 mg/ml), or DOX NPs were diluted 1:1.5 in saline. Tumor progression is monitored twice a week by caliper measurement and calculated using the formula: Volume=(width)^2×length/2. Mice are observed daily, and body weight is detected as possible signs of toxicity. For histological analysis, mice are euthanized at the end of the treatments. Following excision, tumors are weighted, fixed in 4% formaldehyde, embedded in paraffin, and sectioned into 5-μm slices. Tissue samples are analyzed by H&E staining for histopathological changes, Ki67 staining for cell proliferation and TUNEL assay for apoptotic cell death.

The subject of test [3] is MDA-MB-231 human breast cancer cell line. As to the kind of experiment: In vitro cytotoxicity of DOX NPs, PrestoBlue cell viability assay. The format is cell-based. The settings on record: MDA-MB-231, 48 h. How it is done: MDA-MB-231 or DOX-resistant human ovary carcinoma cell line NAR cells were seeded in 48-well plates at a density of 10,000 cells per well. After 24 h, medium was replaced with medium containing DOX NPs or free DOX at various concentrations. After incubation for 4 h, the medium was replaced to drug-free culture medium. After 48 h incubation, cell viability was assessed using PrestoBlue cell viability assay, as described above.
Statistical analysis was performed with GraphPad Prism version 6.05 for Windows (GraphPad Software, San Diego, Calif.). All variables are expressed as mean±SEM. To test the hypothesis that changes in DLS and potential measurements varied over time among the experimental groups, a general linear 2-way repeated-measures (RM) ANOVA model was used. The model included the effects of treatment, time, and treatment-by-time interaction, with Sidak's multiple comparisons test. Viability data was fit using 4-parametric logistic regression curve, where applicable. IC50 values obtained from the intersection of regression line with 50% response. Differences between experimental groups as a function of drug concentration were evaluated by 2-way ANOVA, with Sidak's multiple comparisons test. P<0.05 was considered statistically significant.

The test system of test [4] is CT26 mouse colon carcinoma cells. As to the kind of experiment: In vitro cytotoxicity of MTX complexes, PrestoBlue cell viability assay. The format is cell-based. The following applies: CT26, 48 h incubation. How it is done:
CT26 mouse colon carcinoma cells or MDA-MB-231 human breast cancer cell line were seeded in 48-well plates at a density of 10,000 cells per well. After 24 h, medium was replaced with medium containing MTX nano-complexes or free MTX at various concentrations. After 48 h incubation, cell viability was assessed using PrestoBlue cell viability assay (Life Technologies, Carlsbad, Calif.). The assay is based on the live cell's ability to reduce resazurin (non-fluorescent) to resorufin (fluorescent). PrestoBlue working solution was prepared by dilution of PrestoBlue reagent 1:10 in cell culture medium. PrestoBlue working solution was added to the cells for 1 h at 37° C. and 5% CO2. Fluorescent intensity was measured using the Synergy Mx microplate reader (Biotek, Winooski, Vt.) at an excitation wavelength of 560 nm and emission wavelength of 590 nm. The percentage of cell viability was obtained after normalizing the data to untreated cells.
Statistical analysis was performed with GraphPad Prism version 6.05 for Windows (GraphPad Software, San Diego, Calif.). All variables are expressed as mean±SEM. […] Differences between experimental groups as a function of drug concentration were evaluated by 2-way ANOVA, with Sidak's multiple comparisons test. […]

The structures appear in SMILES notation. Values after ≈ are worked out from the molar mass of the structure shown.

The IC50 is the concentration at which inhibition is half-maximal.

On to `COc1cccc2c1C(=O)c1c(O)c3c(c(O)c1C2=O)C[C@@](O)(C(=O)CO)C[C@@H]3O[C@H]1C[C@H](N)[C@H](O)[C@H](C)O1.Cl` [Free DOX, Doxorubicin-HCl], for which the “% positive cells (DOX-positive)” value in the test on MDA-MB-231 cells [1] (MDA-MB-231, 4 h) is recorded as 90%; in the test on MDA-MB-231 cells [1] (MDA-MB-231, 24 h) it was 72%; with NAR cells (4 h), 71%; with NAR cells (4 h, listed as free DOX) it was about 70%; with NAR cells (24 h), 13%. Also, the “Mean Fluorescent intensity” value in the test on MDA-MB-231 cells [1] (MDA-MB-231, 4 h) was determined as 59061; with MDA-MB-231 cells [1] (MDA-MB-231, 24 h), 41944; with NAR cells (4 h), 40932; in the test on NAR cells (24 h) it was 15108. Besides, the “tumor size compared to controls” value in the test on MDA-MB-231 cells [2] is “reduced”.

Take `CN(Cc1cnc2nc(N)nc(N)c2n1)c1ccc(C(=O)N[C@@H](CCC(=O)O)C(=O)O)cc1` [MTX, Methotrexate]: the half-maximal inhibitory concentration (IC50) was determined as 1.27 µg/mL (≈ 2.79 µM) in test [3] and 0.00696 µg/mL in test [4].
